Earlier results, collected in patent US8293779B2, “Mazindol combination in the treatment of attention deficit/hyperactivity” (Assistance Publique-Hopitaux de Paris, priority 2006, dated 2012).
Like-named read-outs stand apart in the source and are kept apart here.

Tests used:
[1] = unlike amphetamine molecules
[2] = animal toxicology studies
[3] = after single or repeated oral administration

OC1(c2ccc(Cl)cc2)c2ccccc2C2=NCCN21 (centres unmarked) [mazindol, 5-(4-chlorophenyl)-2,5-dihydro-3H-imadazo[2,1-a]isoindol-5-ol]
cardiovascular modifications or stereotypes [1]: does not cause cardiovascular modifications or stereotypes
part of the dose still plasmatically effective (24 hours after taking): 75%
plasmatic half-life time [3]: 33 to 55 h
tmax [3]: 2 to 4 h
pharmacokinetics dose dependence (doses of between 1 mg/day and 4 mg/day): linear (independent of the dose)
plasmatic half-life time (general statement): greater than one day
excretion in faeces (fraction) (in vivo): ¼
delay of absorption by taking food concomitantly (oral, with food): approximately 1 hour
effect of food on total quantity absorbed (oral, with food): does not modify the total quantity absorbed
excretion in urine (fraction) (principal metabolism urinary): ¾
carcinogenic effect [2]: no carcinogenic effect
mutagenic effect [2]: no mutagenic effect
toxic potential [2]: very low
toxicology effect in reproduction [2]: no toxicology effect in reproduction
